The compounds below were run against human SGLT1 (Homo sapiens (Human), UniProt P13866) (assay: SGLT1 inhibitory activity: 14C-AMG uptake into CHO-K1 cell line stably expressing human SGLT1). Conditions: 14C-AMG uptake, CHO-K1 cells expressing human SGLT1.
Format: cell-based
In short: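 Human SGLT1 was stably expressed in CHO-K1 cells. Cells were first held 20 min in sodium-free buffer, then exposed to compound in Na(+)/BSA buffer with tracer and AMG (2 mM in the added solution).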

human SGLT1, sequence (P13866 whole entry): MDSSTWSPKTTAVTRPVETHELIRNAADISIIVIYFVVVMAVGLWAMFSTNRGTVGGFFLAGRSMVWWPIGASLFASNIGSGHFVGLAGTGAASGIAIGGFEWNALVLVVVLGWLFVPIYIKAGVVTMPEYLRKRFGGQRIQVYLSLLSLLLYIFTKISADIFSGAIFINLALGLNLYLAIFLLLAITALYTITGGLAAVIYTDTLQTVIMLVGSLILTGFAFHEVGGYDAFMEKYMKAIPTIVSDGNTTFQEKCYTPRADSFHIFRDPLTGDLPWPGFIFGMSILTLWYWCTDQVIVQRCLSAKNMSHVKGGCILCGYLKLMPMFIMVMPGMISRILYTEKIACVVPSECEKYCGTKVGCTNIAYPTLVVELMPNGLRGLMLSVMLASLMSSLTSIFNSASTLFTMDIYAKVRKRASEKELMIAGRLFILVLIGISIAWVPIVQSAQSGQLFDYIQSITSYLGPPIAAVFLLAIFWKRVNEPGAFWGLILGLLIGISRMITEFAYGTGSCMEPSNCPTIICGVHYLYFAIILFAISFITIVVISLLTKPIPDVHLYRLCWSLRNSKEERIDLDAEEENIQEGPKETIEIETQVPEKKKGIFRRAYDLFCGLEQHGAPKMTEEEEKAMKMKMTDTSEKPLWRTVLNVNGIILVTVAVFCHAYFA

| Compound | IC50 |
| --- | --- |
| CCCc1cccc(-c2cc(NC(=O)C3CNC(=O)C3)nn2C(C)(C)C)c1 (racemic) [Example 42] | 190 nM |
| CCCc1cc(F)cc(-c2cc(NC(=O)[C@H]3CNC(=O)C3)nn2-c2ccccc2)c1 [Example 74] | 3.1 nM |
| C[C@H]1C(=O)NC[C@@H]1C(=O)Nc1cc(-c2cccc(OCC(F)(F)F)c2)n(-c2ccccc2Cl)n1 [Example 215] | 1.4 nM |
| CCOc1cccc(-c2cc(NC(=O)[C@H]3CNC(=O)C3)nn2-c2ccccc2)c1 [Example 30] | 95 nM |
| O=C1C[C@@H](C(=O)Nc2cc(-c3cccc(OCCC(F)(F)F)c3)n(-c3ccc(Cl)cc3)n2)CN1 [Example 160] | 11 nM |
| C[C@H]1C(=O)NC[C@@H]1C(=O)Nc1cc(-c2cccc(C(C)(C)C)c2)n(-c2ccccc2Cl)n1 [Example 194] | 0.7 nM |
| O=C1C[C@@H](C(=O)Nc2cc(-c3cccc(OCCC(F)(F)F)c3)n(-c3ccccc3)n2)CN1 [Example 149] | 9.5 nM |
| Cc1ccc(-n2nc(NC(=O)[C@H]3CNC(=O)C3)cc2-c2cccc(OC(F)(F)F)c2)cc1 [Example 233] | 20 nM |
| CCC(F)(F)c1cccc(-c2cc(NC(=O)[C@H]3CNC(=O)[C@@H]3C)nn2-c2ccccc2)c1 [Example 154] | 1.1 nM |
| O=C1C[C@@H](C(=O)Nc2cc(-c3cccc(CO)c3)n(-c3ccccc3)n2)CN1 [Example 119] | 570 nM |
| COc1cccc(-n2nc(NC(=O)[C@H]3CNC(=O)C3)cc2-c2cccc(OC(F)(F)F)c2)c1 [Example 163] | 7.1 nM |
| CCCc1cccc(-c2cc(NC(=O)[C@H]3CNC(=O)C3)nn2-c2ccccc2C)c1 [Example 102] | 2.2 nM |
| O=C1CCC(C(=O)Nc2cc(-c3cccc(OC(F)(F)F)c3)n(-c3cccc(F)c3)n2)CN1 (single isomer, unassigned) [Example 168] | 36 nM |
| CCC(C)(C)c1cccc(-c2cc(NC(=O)[C@@H]3CNC(=O)C3)nn2-c2ccccc2)c1 [Example 53] | 3.8 nM |
| CCCc1cccc(-c2cc(NC(=O)C3CNC(=O)C3)nn2C(C)C)c1 (racemic) [Example 17] | 66 nM |
| O=C1CCC(C(=O)Nc2cc(-c3cccc(OC(F)(F)F)c3)n(-c3ccc(F)cc3)n2)CN1 (single isomer, unassigned) [Example 165] | 22 nM |
| CCC(F)(F)c1cccc(-c2cc(NC(=O)[C@H]3CNC(=O)C3)nn2CCC(C)C)c1 [Example 142] | 9.2 nM |
| CC(C)(C)c1cccc(-c2cc(NC(=O)[C@H]3CNC(=O)C3)nn2C2CCOCC2)c1 [Example 177] | 56 nM |
| C[C@H]1C(=O)NC[C@@H]1C(=O)Nc1cc(-c2cccc(C(F)(F)F)c2)n(-c2cccc(F)c2)n1 [Example 209] | 9.2 nM |
| CCC(F)(F)c1cccc(-c2cc(NC(=O)C3CCC(=O)NC3)nn2-c2cccc(F)c2)c1 (single isomer, unassigned) [Example 171] | 8.3 nM |
| CCCc1cccc(-c2cc(NC(=O)[C@@H]3CNC(=O)C3)nn2Cc2ccccc2)c1 [Example 99] | 73 nM |
| O=C1C[C@@H](C(=O)Nc2cc(-c3cccc(OC(F)(F)F)c3)n(-c3ccc(Cl)cc3)n2)CN1 [Example 105] | 37 nM |
| O=C1C[C@@H](C(=O)Nc2cc(-c3cccc(OC(F)(F)F)c3)n(CCC3CCOCC3)n2)CN1 [Example 201] | 93 nM |
| O=C1C[C@@H](C(=O)Nc2cc(-c3cccc(OC(F)(F)F)c3)n(C3CCCCCC3)n2)CN1 [Example 85] | 50 nM |
| CCOc1cccc(-c2cc(NC(=O)[C@@H]3CNC(=O)C3)nn2-c2ccccc2)c1 [Example 31] | 270 nM |
| CCC(F)(F)c1cccc(-c2cc(NC(=O)[C@H]3CNC(=O)[C@@H]3C)nn2CCOC(C)C)c1 [Example 176] | 55 nM |

Same assay, conditions: 14C-AMG uptake, CHO-K1 cells stably expressing human SGLT1

| Compound | IC50 |
| --- | --- |
| CCCc1cccc(-c2cc(NC(=O)[C@@H]3CNC(=O)N3CC)nn2-c2ccccc2)c1 [Example 295] | 29 nM |
| O=C1C[C@H](C(=O)Nc2cc(-c3cc(F)cc(COCC(F)(F)F)c3)n(-c3ccc(F)cc3)n2)CN1 [Example 248, (S)-5-oxopyrrolidine-3-carboxylic acid{1-(4-fluorophenyl)-5-[3-fluoro-5-(2,2,2-trifluoroethoxymethyl)phenyl]-1H-pyrazol-3-yl}amide] | 25 nM |
| CCCCc1cccc(-c2cc(NC(=O)[C@@H]3CNC(=O)N3)nn2-c2ccccc2)c1 [Example 268] | 8.5 nM |
| CC(C)COc1cccc(-c2cc(NC(=O)[C@H]3CNC(=O)C3)nn2-c2ccccc2)c1 [Example 287] | 12 nM |
| CCOc1cc(-n2nc(NC(=O)[C@@H]3CNC(=O)C3)cc2-c2cccc(COCC(F)(F)F)c2)ccc1F [Example 417] | 4.3 nM |
| CCCc1cccc(-c2cc(NC(=O)[C@@H]3CNC(=O)C3)nn2-c2ccc(CC)cc2)c1 [Example 403] | 12 nM |
| CC(C)(OCc1cccc(-c2cc(NC(=O)[C@@H]3CNC(=O)C3)nn2-c2ccccc2)c1)C(F)(F)F [Example 352] | 14 nM |
| O=C1C[C@H](C(=O)Nc2cc(-c3cccc(OC(F)(F)F)c3)n(-c3cccc(F)c3)n2)CN1 [Example 467] | 26 nM |
| CC(C)(C)/C=C/c1cccc(-c2cc(NC(=O)[C@@H]3CNC(=O)C3)nn2-c2ccccc2)c1 [Example 531] | 30 nM |
| CCCc1cccc(-c2cc(NC(=O)[C@@H]3CNC(=O)C3)nn2-c2cccc(OC)c2)c1 [Example 343] | 7.2 nM |
| C[C@@H](OCc1cccc(-c2cc(NC(=O)[C@@H]3CCC(=O)N3)nn2-c2ccccc2)c1)C(F)(F)F [Example 547] | 43 nM |
| COc1ccc(F)c(-n2nc(NC(=O)[C@@H]3CNC(=O)C3)cc2-c2cccc(COCC(F)(F)F)c2)c1 [Example 522] | 5.3 nM |
| CCOc1ccc(F)c(-n2nc(NC(=O)[C@@H]3CNC(=O)C3)cc2-c2cccc(CO[C@H](C)C(F)(F)F)c2)c1 [Example 463] | 1.1 nM |
| C[C@@H](OCc1cccc(-c2cc(NC(=O)[C@@H]3CNC(=O)N3)nn2-c2ccccc2)c1)C(F)(F)F [Example 562] | 13 nM |
| CCOc1cccc(-n2nc(NC(=O)[C@@H]3CNC(=O)C3)cc2-c2cccc(OC(F)(F)F)c2)c1 [Example 443] | 11 nM |
| CCCc1cccc(-c2cc(NC(=O)[C@@H]3CNC(=O)C3)nn2-c2cccc(OCc3ccccc3)c2)c1 [Example 340] | 16 nM |
| CCCc1cccc(-c2cc(NC(=O)[C@@H]3CNC(=O)C3)nn2-c2cccc(C)c2C)c1 [Example 323] | 4.8 nM |
| CCCc1cccc(-c2cc(NC(=O)[C@@H]3CNC(=O)C3)nn2-c2ccc(OCC(F)(F)F)cc2)c1 [Example 375] | 13 nM |
| C[C@@H](OCc1cc(Cl)cc(-c2cc(NC(=O)[C@@H]3CNC(=O)C3)nn2-c2ccccc2)c1)C(F)(F)F [Example 241, (S)-5-oxopyrrolidine-3-carboxylic acid{5-[3-chloro-5-((R)-2,2,2-trifluoro-1-methylethoxymethyl)phenyl]-1-phenyl-1H-pyrazol-3-yl}amide] | 9.95 nM |
| O=C1C[C@H](C(=O)Nc2cc(-c3cc(F)cc(COCC(F)(F)F)c3)n(-c3ccc(Cl)cc3)n2)CN1 [Example 512] | 16 nM |
| O=C1NC[C@@H](C(=O)Nc2cc(-c3cccc(OC(F)(F)F)c3)n(-c3ccccc3)n2)N1 [Example 266] | 45 nM |
| CCCc1cccc(-c2cc(NC(=O)[C@@H]3CNC(=O)C3)nn2-c2ccccc2CC)c1 [Example 358] | 17 nM |
| O=C1C[C@H](C(=O)Nc2cc(-c3cccc(COC(C(F)(F)F)C(F)(F)F)c3)n(-c3ccc(F)cc3)n2)CN1 [Example 409] | 12 nM |
| CCCc1cccc(-c2cc(NC(=O)[C@@H]3CNC(=O)C3)nn2-c2ccc(C(F)(F)F)cc2)c1 [Example 402] | 17 nM |
| CCCc1cccc(-c2cc(NC(=O)C3CCS(=O)(=O)CC3)nn2-c2ccccc2)c1 [Example 302] | 1.5 nM |
| O=C1C[C@H](C(=O)Nc2cc(-c3cccc(CNCC(F)(F)F)c3)n(-c3ccccc3)n2)CN1 [Example 501] | 69 nM |
| COCCOc1ccc(F)c(-n2nc(NC(=O)[C@@H]3CNC(=O)C3)cc2-c2cccc(OC(F)(F)F)c2)c1 [Example 518] | 11 nM |
| CCCc1cccc(-c2cc(NC(=O)[C@H]3COC(=O)N3)nn2-c2ccccc2)c1 [Example 369] | 15 nM |
| CC(C)(C)CS(=O)(=O)c1cccc(-c2cc(NC(=O)[C@@H]3CNC(=O)C3)nn2-c2ccccc2)c1 [Example 540] | 48 nM |

Same assay, conditions: CHO-K1, at 0.03 uM

| Compound | inhibition at 0.03 µM |
| --- | --- |
| C[C@H]1C(=O)NC[C@@H]1C(=O)Nc1cc(-c2cccc(OC(F)(F)F)c2)n(-c2ccc(F)cc2F)n1 [Example 184] | 3% |

Same assay, conditions: CHO-K1, at 0.1 uM

| Compound | inhibition at 0.1 µM |
| --- | --- |
| C[C@@H](OCc1cccc(-c2cc(NC(=O)[C@H]3CCC(=O)N3)nn2-c2ccccc2)c1)C(F)(F)F [Example 556] | 23% |
| CCS(=O)(=O)Cc1cccc(-c2cc(NC(=O)[C@@H]3CNC(=O)C3)nn2-c2ccccc2)c1 [Example 541] | 24% |
| O=C1C[C@H](C(=O)Nc2cc(-c3cccc(CO[C@H]4CCOC4)c3)n(-c3ccccc3)n2)CN1 [Example 537] | 1% |
| CCCc1cccc(-c2cc(NC(=O)C3CC(=O)NC3C)nn2-c2ccccc2)c1 (stereo not shown) [Example 405] | 29% |
| CCCc1cc(CO)cc(-c2cc(NC(=O)[C@H]3CNC(=O)C3)nn2-c2ccccc2)c1 [Example 146] | 38% |
| O=C1C[C@H](C(=O)Nc2cc(-c3cccc(CN4CCCC4)c3)n(-c3ccccc3)n2)CN1 [Example 428] | 31% |
| CCCNC(=O)c1cccc(-c2cc(NC(=O)[C@@H]3CNC(=O)C3)nn2-c2ccccc2)c1 [Example 429] | 40% |

Same assay, conditions: CHO-K1, at 0.3 uM

| Compound | inhibition at 0.3 µM |
| --- | --- |
| CCCc1cccc(-c2cc(NC(=O)[C@@H]3CN(CC)C(=O)N3)nn2-c2ccccc2)c1 [Example 329] | 35% |
| CCCc1cccc(-c2cc(NC(=O)[C@H]3CN(CC)C(=O)N3)nn2-c2ccccc2)c1 [Example 330] | 11% |
| CCCc1cccc(-c2cc(NC(=O)[C@@H]3CNC(=O)N3CC(=O)O)nn2-c2ccccc2)c1 [Example 347] | 11% |

Same assay, conditions: at 0.1 uM

| Compound | human SGLT1 % Inhibition |
| --- | --- |
| CCCc1cccc(-c2cc(NC(=O)C3CNC(=O)CO3)nn2-c2ccccc2)c1 (stereo not shown) [Example 277] | 48% |

Source: patent US8846746B2, “Pyrazole compound and pharmaceutical use thereof” (Japan Tobacco Inc., priority 2011, dated 2014)
